The values below come from patent EP0252983B1, “SALTS OF N-(VINYLOXIETHYL)DITHIOCARBAMIC ACID, METHOD OF OBTAINING THEREOF AND […] ON THEM” (priority 1985, dated 1987).

Where two headings read alike, the source gives them in different places.

One data set has as its system Psoroptes cuniculi. Briefly: Acaricidal activity on isolated mites. The class given is in vivo. Here is the method:
Die akarizide Aktivität der Stoffe wird an isolierten Milben Psoroptes cuniculi als Erreger der Psoroptesräude bei Kaninchen geprüft. Von frischen Verkrustungen von Kaninchen mit Psoroptesräude, werden zu diesem Zweck 50 Milbenexemplare (Larven, Nymphen, Imago) gewählt und in Petri-Schalen auf ein Filterpapierblatt übertragen. Dann bringt man auf Milben und die ganze Blattoberfläche 1,5 ml zu prüfende wäßrige Stofflösung in destilliertem Wasser auf. Die Schale wird mit Deckel verschlossen und in einen Thermostat bei 30 °C und Feuchtegehalt von 90 % angeordnet. Der Wirkstoff wird als wäßrige Lösung mit einer zwischen 0,0039 und 4 % liegenden Konzentration genommen. Als Vergleichsmuster dient gleichzeitig eine wäßrige Lösung von Chlorophos. Milben werden im Kontrollversuch (Kontrolle auf Lebensfähigkeit)mit 1,5 ml physiologischer Lösung behandelt und in einen anderen Thermostat unter gleichen Temperatur- und Feuchtigkeitsbedingungen aufgestellt.
Nach 1, 2, 4, 6 Stunden und alle 24 Stunden betrachtet man die Milben im Mikroskop und zählt die toten Milben. Aufgrund der Milbenvernichtung durch einen 24-stündigen Kontakt mit dem Wirkstoff ermittelt man die LK-50 Werte. Die Versuche werden 5mal wiederholt. Arithmetische Mittelwerte gibt Tabelle 14 an.

For the next data set, the system named is Larven von Fichtenböcken. Briefly: Insecticidal activity, topical application to larvae. The settings on record: 10%ige Lösung. The class given is in vivo, Fichtenböcke. From the text: Die hohe insektizide Aktivität von Kalium-N-(vinyloxyathyl)dithiocarbamat und Zink-bis-(N-vinyloxyathyl- dithiocarbamat) wurde in Versuchen an Larven von Fichtenböcken nachgewiesen. Geprüft wurden die 10%igen wäßrigen (oder alkoholischen) Lösungen, welche auf die Kopfbrust von Larven aufgebracht wurden. In Versuchen standen je 20 Larven zur Verfügung. Die Versuche wurden dreimal wiederholt. Die Mortalität wurde nach 1, 24 und 48 Stunden ermittelt. Die insektizide Aktivität der erfindungsgemäßen Stoffe ist bedeutend höher als die von Chlorophos.
Die Prüfungen auf insektizide Aktivität werden an Larven von Fichtenböcken durchgeführt. Geprüft werden eine 10%ige wäßrige Lösung von Kalium-N-(vinyloxyäthyl)dithiocarbamat und eine 10%ige alkoholische Lösung von Zink-bis-N-(vinyloxyathyldithiocarbamat). In jedem Versuch stehen je 20 Larven zur Verfügung. Die Mortalität wird nach 1, 24 und 48 Stunden ermittelt. Die zu prüfenden Lösungen werden auf die Kopfbrust von Larven aufgebracht.

The next data set has as its system Fusarium oxysporum. Description: Soil fungicide test (fungal discs in treated soil). The class given is cell-based. More on the design: key: Das Vorhandensein (+); das Fehlen (-) des wachsenden Myzels um die Scheibe herum. The note with it: 160 mg/kg Boden. As for the experimental part:
(§1) Eine 50 g schwere Bodenprobe bringt man in ein Glasgefäß ein, sterilisiert innerhalb von 2 Stunden unter einem Druck von 2 atm, gibt dann dem Boden das Präparat als wäßrige Lösung ausgehend von 160 mg/kg zu, wonach in den Boden Scheiben mit Kulturen folgender Pilze Fusarium oxysporum, Verticillium dahliae, Rhizoctonia solani, Pythium ultimum untergebracht werden.
(§2) Nach 24 und 48 Stunden werden die Scheiben in fließendem Wasser, dann in sterilem Wasser gewaschen, auf sterilem Filterpapier getrocknet und auf eine reine Agarplatte gelegt. Das Vorhandensein (+) oder das Fehlen (-) des wachsenden Myzels um die Scheibe herum wies auf die Wirksamkeit des Präparats. Als Vergleichsmuster diente dabei Karbathion. Die Prüfergebnisse sind in der Tabelle 5 dargestellt.

Another data set deals with Pythium ultimum. Description: Soil fungicide test (fungal discs in treated soil). The note with it: 160 mg/kg Boden. On the set-up: key: Das Vorhandensein (+); das Fehlen (-) des wachsenden Myzels um die Scheibe herum. The data set is classed as cell-based. Here is the method: as §1, §2
Data set [1] deals with Rhizoctonia solani. Briefly: Soil fungicide test (fungal discs in treated soil). The class given is cell-based. On the set-up: key: Das Vorhandensein (+); das Fehlen (-) des wachsenden Myzels um die Scheibe herum. The note with it: 160 mg/kg Boden. As for the experimental part:
as §1, §2

Data set [2] relates to Verticillium dahliae. Briefly: Soil fungicide test (fungal discs in treated soil). The class given is cell-based. On the set-up: key: Das Vorhandensein (+); das Fehlen (-) des wachsenden Myzels um die Scheibe herum. The settings on record: 160 mg/kg Boden. As for the experimental part: as §1, §2
The subject of another data set is Wurzelfäule von Gurken. Briefly: Cucumber root rot test in treated non-sterile soil. The class given is in vivo. The note with it: 200 kg/ha Wirkstoff. From the text: Man nimmt 100 g unsterilen Boden, enthaltend 1 Teil Humus, 1 Teil Rasenboden, 1 Teil Sand, gibt darin ein Präparat, das Zink-bis-(N-vinyloxyäthyldithiocarbamat) ausgehend von 200 kg/ha Wirkstoff enthält.
Das Präparat wird wie folgt hergestellt: Einer gesättigten Lösung des genannten Salzes in Azeton gibt man einige Tropfen Emulgiermittel (hydroxyäthylierte Alkylphenole) zu und verdünnt mit Wasser. Innerhalb von 7 bis 8 Tagen begießt man dann bodenhaltige Gefäße mit Wasser, bis der Boden in einen Zustand gebracht wird, der 60% der vollen Wasseraufnahmekapazität des Feldes beträgt. Nach dieser Zeit erfolgt die Aussaat von Gurkensamen, eingequollen im voraus in einer 0,1%igen KMn04-Lösung innerhalb von 2 Stunden. In jedes Gefäß werden je 10 Samen auf eine Tiefe von 1 bis 1,5 cm gesät. Nach 7 bis 9 Tagen berücksichtigt man die Keimungsfähigkeit von Samen, dann bestimmt man nach 3 Tagen den Befallumfang von Pflanzen durch Wurzelfäule, hervorgerufen durch einen Erregerkomplex. Die Versuche werden viermal wiederholt, als Vergleichsmuster dient Milon. Die Prüfergebnisse zeigt Tabelle 9.

In the next data set the test system is Aspergillus niger. Briefly: Mycelial growth inhibition on agar (contact activity). The class given is cell-based.
The test system of a further data set is Paecilomyces varioti. The data set is described as above. The class given is cell-based. The settings on record: Paecilomyces, 120 h, Wirkstoffkonzentration 0,003 %. Here is the method:
(§3) Die Prüfungen werden nach dem Verfahren zur Ermittlung der Kontaktaktivität durchgeführt. Man verwendet das in Wasser gelöste Kalium-N-(vinyloxyäthyl)dithiocarbamat, führt es in ein Nährmedium ein und vergießt auf Petri-Schalen. Nach 24 Stunden wird mit Pilzmyzelium nach einem Stichverfahren geimpft. Dann temperiert man die Schalen innerhalb von 5 Tagen bei einer zwischen 24 und 26 °C liegenden Temperatur und mißt den Durchmesser von Pilzkolonien, ermittelt den Prozentsatz der Hemmung des Myzelwachstums (S) ausgehend von Angaben am 5. Tag nach der Abbott-Formel [drawing 13] worin dc für den Durchmesser der Pilzkolonien, de für den Durchmesser von Pilzkolonien in der Schale stehen, wo ein die zu prüfenden Stoffe enthaltendes Medium vorhanden ist. Dieses Verfahren zur Ermittlung der mikrobiologischen Aktivität ist in anderen Beispielen verwendet.

The subject of the next data set is Penicillium funiculosum. Described as above. The settings on record: Talaromyces funiculosus, 120 h, Wirkstoffkonzentration 0,003 %. The data set is classed as cell-based. As for the experimental part:
as §3

The subject of another data set is Stereum hirsutum. Described as above. The data set is classed as cell-based. The note with it: Stereum hirsutum, 120 h, Wirkstoffkonzentration 0,003 %. As for the experimental part:
as §3

The subject of the next data set is Chaetomium globosum. Described as above. The note with it: Chaetomium globosum, 120 h; Wirkstoffkonzentration 0,003 %; Tabelle 3; read-out: Mycelhemmung, in %. The data set is classed as cell-based. As for the experimental part:
as §3

Another data set relates to Botrytis cinerea. Described as above. The class given is cell-based. The note with it: 120 h, Kartoffel-Glukose-Nährmedium, read-out: Myzelhemmung in %. Here is the method: as §3
(§4) Tabelle 2 zeigt die Angaben für die fungizide Aktivität von Kalium-N-(vinyloxyäthyl)dithiocarbamat und bekannten wirksamen Fungiziden Poly arbazin und TMTD. Der zu prüfende Stoff wurde im Laufe der Versuche in Wasser aufgelöst, und die Kulturen wurden auf einem Kartoffel-Glukose-Nährmedium gezüchtet.

A further data set concerns Fusarium moniliforme. The description is as above. The data set is classed as cell-based. Here is the method:
as §3, §4

A further data set has as its system Fusarium sambucinum. The data set is described as above. The data set is classed as cell-based. As for the experimental part:
as §3, §4

Another data set has as its system Venturia inaegualis. The data set is described as above. The note with it: 120 h, Kartoffel-Glukose-Nährmedium, read-out: Myzelhemmung in %. The data set is classed as cell-based. As for the experimental part: as §3, §4
Data set [3] relates to Verticillium dahliae. The description is as above. The data set is classed as cell-based. The settings on record: 120 h, Kartoffel-Glukose-Nährmedium, read-out: Myzelhemmung in %. Here is the method:
as §3, §4

The subject of data set [4] is Rhizoctonia solani. Described as above. The class given is cell-based. The settings on record: Rhizoctonia solani, 120 h; Wirkstoffkonzentration 0,003 %; Würzeagar; Tabelle 7; read-out: Myzelhemmung in %. As for the experimental part: as §3
Die fungizide Aktivität von Zink-bis-(N-vinyloxyäthyldithiocarbamat) gegen reine Kulturen von Pilzen Fusarium moniliforme, Fusarium sambucinum, Aspergillus niger, Rhizoctonia solani, Cladosporium resinae, Cladosporium cladosporioides, Acremonium cowum, Acremonium charticola, Penicillium chrysogenum, Penicillium charlesii Smith, Penicillium funiculosum, Geotrichum candidum Link, Walrotiela subiculesa, Oidium sp., Paecilomyces varioti, Stereum hirsutum wird gemäß Beispiel 8 untersucht.
(§5) Als Nährmedium dient Würzeagar.

For another data set, the system named is Sphaeropsis malorum. The data set is described as above. The data set is classed as cell-based. The settings on record: 120 h; Wirkstoffkonzentration 0,003 %; Würzeagar; Tabelle 7; read-out: Myzelhemmung in %. As for the experimental part:
as §3, §5

[5] abbreviates: Würzeagar, Tabelle 8, read-out: Myzelhemmung in %.
[6] abbreviates: Tabelle 3, read-out: Mycelhemmung, in %.
Setting [7] is: Wirkstoffkonzentration 0,003 %, Würzeagar, Tabelle 7.

Regarding `COP(=O)(OC)C(O)C(Cl)(Cl)Cl` (stereo not drawn) [Chlorophos, O,O-Dimethyl-(1-oxy-2,2,2-trichloräthyl)phosphonat, reference compound], in the data set with Psoroptes cuniculi (24-stündiger Kontakt mit dem Wirkstoff), the LK-50 % was 0,8%. The “Vernichtung von 100 % der Milben nach Stunden” value in the data set on Psoroptes cuniculi (Konzentration 0,5 bis 1,0 %) is recorded as 48 Stunden; in the data set on Psoroptes cuniculi (Konzentration 0,25 %) it was 72 Stunden. Also, the “Mortalität von Larven der Fichtenböcke” value was determined as 0% in the data set with Larven von Fichtenböcken (Wirkungsdauer 1 Stunde), 20% with Larven von Fichtenböcken (Wirkungsdauer 24 Stunden) and 57% in the data set with Larven von Fichtenböcken (Wirkungsdauer 48 Stunden).

In the case of `CNC(=S)[S-].[Na+]` [Karbathion, reference compound], the “wachsendes Myzel um die Scheibe” value in the data set with Fusarium oxysporum (Haltedauer 24 Stunden), in the data set on Fusarium oxysporum (Haltedauer 48 Stunden), in the data set on Pythium ultimum (Haltedauer 24 Stunden), in the data set on Pythium ultimum (Haltedauer 48 Stunden), in the data set on Rhizoctonia solani [1] (Haltedauer 24 Stunden) and in the data set on Rhizoctonia solani [1] (Haltedauer 48 Stunden) was “-” in each case. Also, the “wachsendes Myzel um die Scheibe” value in the data set with Verticillium dahliae [2] (Haltedauer 24 Stunden) and in the data set on Verticillium dahliae [2] (Haltedauer 48 Stunden) was “-” throughout.

For the molecule `CN1CSC(=S)N(C)C1` [Milon, 3,5-Dimethyltetrahydro-1,3,5-thiadizin-1-thion-2, reference compound], the Keimungshäufigkeit in % in the data set on Wurzelfäule von Gurken (Gurkensamen) is 70,3%. Besides, in the data set with Wurzelfäule von Gurken (Wurzelfäule von Gurken), the “Entwicklung von Krankheiten in %” value was 0%.

For `Oc1c(Cl)c(Cl)c(Cl)c(Cl)c1Cl` [Pentachlorphenol, reference compound], the inhibition of growth at 0.003 % with Aspergillus niger (Aspergillus niger, 120 h, Wirkstoffkonzentration 0,003 %, Würzeagar, Tabelle 8, read-out: Myzelhemmung in %) turned out to be 100%; in the data set with Paecilomyces varioti (setting [5]), 100%; in the data set with Penicillium funiculosum (setting [5]), 100%; in the data set with Stereum hirsutum (setting [5]) it was 100%.

As for `O=C(Nc1ccccc1)c1ccccc1O` [Salizylanilid, reference compound], the inhibition of growth at 0.003 % with Aspergillus niger (Aspergillus niger, 120 h, Wirkstoffkonzentration 0,003 %, Tabelle 3, read-out: Mycelhemmung, in %) came to 100%; in the data set on Chaetomium globosum, 100%; in the data set on Paecilomyces varioti (setting [6]), 100%; with Penicillium funiculosum (setting [6]), 100%; in the data set on Stereum hirsutum (setting [6]), 100%.

Consider `CN(C)C(=S)SSC(=S)N(C)C` [TMTD, Tetramethylthiuramdisulfid, reference compound], for which the inhibition of growth at 0.01 % in the data set with Botrytis cinerea (Wirkstoffkonzentration 0,01 %) was 100%; in the data set on Fusarium moniliforme (Fusarium verticillioides, 120 h, Wirkstoffkonzentration 0,01 %, Kartoffel-Glukose-Nährmedium, read-out: Myzelhemmung in %), 100%; in the data set on Fusarium sambucinum (Fusarium sambucinum, 120 h, Wirkstoffkonzentration 0,01 %, Kartoffel-Glukose-Nährmedium, read-out: Myzelhemmung in %) it was 100%; in the data set on Venturia inaegualis (Wirkstoffkonzentration 0,01 %), 100%; with Verticillium dahliae [3] (Wirkstoffkonzentration 0,01 %), 100%; with Aspergillus niger (Aspergillus niger, 120 h, Wirkstoffkonzentration 0,01 %, Kartoffel-Glukose-Nährmedium, read-out: Myzelhemmung in %), 100%. Moreover, the inhibition of growth at 0.003 % in the data set with Botrytis cinerea (Wirkstoffkonzentration 0,003 %) was found to be 100%; in the data set on Fusarium moniliforme (Fusarium verticillioides, 120 h, Wirkstoffkonzentration 0,003 %, Kartoffel-Glukose-Nährmedium, read-out: Myzelhemmung in %), 100%; in the data set with Fusarium sambucinum (Fusarium sambucinum, 120 h, Wirkstoffkonzentration 0,003 %, Kartoffel-Glukose-Nährmedium, read-out: Myzelhemmung in %), 100%; with Venturia inaegualis (Wirkstoffkonzentration 0,003 %), 100%; in the data set with Verticillium dahliae [3] (Wirkstoffkonzentration 0,003 %), 100%; in the data set with Aspergillus niger (Aspergillus niger, 120 h, Wirkstoffkonzentration 0,003 %, Kartoffel-Glukose-Nährmedium, read-out: Myzelhemmung in %) it was 100%. In addition, the inhibition of growth at 0.003 % with Rhizoctonia solani [4] and in the data set with Sphaeropsis malorum was 100% each time. The Myzelhemmung in % in the data set with Fusarium moniliforme (setting [7]), with Fusarium sambucinum (setting [7]) and in the data set with Aspergillus niger (setting [7]) was 100% each time.
